Experimental findings from ChEMBL document CHEMBL5321279 (J Med Chem, 2023) are described below.

In one series the test system is HepG2. Nature of the series: (§1) Cytotoxicity against human HepG2 cells assessed as reduction in cell growth measured after 5 days by CellTiter-Glo assay. The note with it: hepg2, 120 h, time 5 day. The class given is toxicity, cell-based. (In general: Cellular ATP, detected with luciferase, serves as a proxy for viable cell number.)
Series [1] in a line: AUC(0 to 24 hrs) in cynomolgus monkey at 11.7 mg/kg, po measured upto 24 hrs by LC-MS/MS analysis. The class given is ADME, organism-based, Macaca fascicularis. The note with it: in vivo. Details: dose 11.7 mg/kg, time < 24 hrs, route po.
Series [2] can be described thus: Prodrug conversion in African green monkey assessed as Nucleotide triphosphate metabolite formation in lung at 60 mg/kg, po measured upto 24 hrs by LC-MS/MS analysis. The note with it: chlorocebus aethiops, in vivo. The class given is ADME, organism-based.
Series [3] in a line: Cmax in African green monkey assessed as prodrug conversion by measuring (2R,3R,4S,5R)-2-(4-aminopyrrolo[2,1-f][1,2,4]triazin-7-yl)-3,4-dihydroxy-5-(hydroxymethyl)tetrahydrofuran-2-carbonitrile at […], po measured upto 24 hrs by LC-MS/MS analysis. The settings on record: chlorocebus sabaeus, in vivo. The class given is ADME, organism-based.
Series [4] concerns SARS-CoV-2. Description: Antiviral activity against SARS-CoV-2 infected in African green monkey assessed as reduction in genomic RNA load in BALF at 60 mg/kg, po qd administered for 1 day starting from 8 hrs post infection by RT-qPCR analysis. It is filed as functional, organism-based. The note with it: Severe acute respiratory syndrome coronavirus 2. (In general: In qPCR the cycle at which signal appears reflects the starting amount.)

Series [5] is described as follows: Half life in African green monkey assessed as prodrug conversion by measuring (2R,3R,4S,5R)-2-(4-aminopyrrolo[2,1-f][1,2,4]triazin-7-yl)-3,4-dihydroxy-5-(hydroxymethyl)tetrahydrofuran-2-carbonitrile at […], po measured upto 24 hrs by LC-MS/MS analysis. The note with it: chlorocebus sabaeus, in vivo. The class given is ADME, organism-based.
The nature of series [6]: Oral bioavailability in rat assessed as prodrug conversion by measuring (2R,3R,4S,5R)-2-(4-aminopyrrolo[2,1-f][1,2,4]triazin-7-yl)-3,4-dihydroxy-5-(hydroxymethyl)tetrahydrofuran-2-carbonitrile at 6 mg/kg administered in solid form measured upto 24 hrs by LC-MS/MS analysis. It is filed as ADME, organism-based. The settings on record: in vivo.
A short description of series [7]: Oral bioavailability in cynomolgus monkey assessed as prodrug conversion by measuring (2R,3R,4S,5R)-2-(4-aminopyrrolo[2,1-f][1,2,4]triazin-7-yl)-3,4-dihydroxy-5-(hydroxymethyl)tetrahydrofuran-2-carbonitrile at 11.7 mg/kg measured upto 24 hrs by LC-MS/MS analysis. The settings on record: in vivo. The class given is ADME, organism-based, Macaca fascicularis.
Series [8] in a line: Stability of compound in human liver S9 fraction assessed as half life at pH 7.4 measured upto 90 mins by LC-MS/MS analysis. It is filed as ADME, subcellular.
A further series concerns CES1b. Nature of the series: Stability of compound assessed as human recombinant CES1b-mediated compound hydrolysis by measuring half life at pH 7.4 using oseltamivir as substrate measured upto 120 mins by LC-MS/MS analysis. The settings on record: pH 7.4, probe oseltamivir. It is filed as ADME.
A short description of series [9]: Half life in rat assessed as prodrug conversion by measuring (2R,3R,4S,5R)-2-(4-aminopyrrolo[2,1-f][1,2,4]triazin-7-yl)-3,4-dihydroxy-5-(hydroxymethyl)tetrahydrofuran-2-carbonitrile at 6 mg/kg, po measured upto 24 hrs by LC-MS/MS analysis. The note with it: in vivo. It is filed as ADME, organism-based.
The test system of series [10] is SARS-CoV-2. Nature of the series: Antiviral activity against SARS-CoV-2 infected in African green monkey assessed as reduction in viral genomic RNA load in throat swabs at 60 to 120 mg/kg, po qd administered for 1 day starting from 8 hrs post infection by RT-qPCR analysis. The class given is functional, organism-based. The settings on record: Severe acute respiratory syndrome coronavirus 2, dose lower 60.0 mg/kg, dose upper […].

The subject of series [11] is SARS-CoV-2. Description: Antiviral activity against SARS-CoV-2 infected in African green monkey assessed as reduction in viral genomic RNA load in terminal respiratory tissue at 60 to 120 mg/kg, po qd administered for 6 days starting from 8 hrs post infection by RT-qPCR analysis. The class given is functional, organism-based. The settings on record: Severe acute respiratory syndrome coronavirus 2, dose lower 60.0 mg/kg, dose upper […], time 6.0 day.

Series [12] concerns SARS-CoV-2. Description: Antiviral activity against SARS-CoV-2 infected in African green monkey assessed as reduction in viral titer in throat swabs at 60 to 120 mg/kg, po qd administered for 6 days starting from 8 hrs post infection by PFA assay. The class given is functional, organism-based. The settings on record: Severe acute respiratory syndrome coronavirus 2, dose lower 60.0 mg/kg, dose upper […], time 6.0 day.

Series [13] can be described thus: AUC(0 to 24 hrs) in African green monkey at […], po measured upto 24 hrs by LC-MS/MS analysis. The class given is ADME, organism-based. The settings on record: chlorocebus sabaeus, in vivo.
The nature of series [14]: Stability of compound in cynomolgus monkey liver S9 fraction assessed as half life at pH 7.4 measured upto 90 mins by LC-MS/MS analysis. It is filed as ADME, subcellular, Macaca fascicularis.
The nature of series [15]: Cmax in African green monkey assessed as prodrug conversion by measuring (2R,3R,4S,5R)-2-(4-aminopyrrolo[2,1-f][1,2,4]triazin-7-yl)-3,4-dihydroxy-5-(hydroxymethyl)tetrahydrofuran-2-carbonitrile at 86.5 mg/kg, po measured upto 24 hrs by LC-MS/MS analysis. It is filed as ADME, organism-based. Also on record: dose 86.5 mg/kg, time < 24 hrs, route po. The settings on record: chlorocebus sabaeus, in vivo.

Series [16] can be described thus: Stability of compound in rat liver S9 fraction assessed as half life at pH 7.4 measured upto 90 mins by LC-MS/MS analysis. It is filed as ADME, subcellular.
The nature of series [17]: Stability of compound in dog liver S9 fraction assessed as half life at pH 7.4 measured upto 90 mins by LC-MS/MS analysis. The class given is ADME, subcellular, Canis lupus familiaris.
Series [18] is described as follows: Oral bioavailability in rat assessed as prodrug conversion by measuring (2R,3R,4S,5R)-2-(4-aminopyrrolo[2,1-f][1,2,4]triazin-7-yl)-3,4-dihydroxy-5-(hydroxymethyl)tetrahydrofuran-2-carbonitrile at 6 mg/kg measured upto 24 hrs by LC-MS/MS analysis. It is filed as ADME, organism-based. The note with it: in vivo.
Series [19] is described as follows: Stability of compound in cynomolgus monkey plasma assessed as half life measured upto 4 hrs by LC-MS/MS analysis. The class given is ADME, cell-free, Macaca fascicularis.
Series [20] concerns SARS-CoV-2. Description: Antiviral activity against SARS-CoV-2 infected in African green monkey assessed as reduction in viral load in BALF at 120 mg/kg, po qd administered for 6 days starting from 8 hrs post infection by PFA assay. It is filed as functional, organism-based. The settings on record: Severe acute respiratory syndrome coronavirus 2, time 6.0 day.
A short description of series [21]: Half life in cynomolgus monkey assessed as prodrug conversion by measuring (2R,3R,4S,5R)-2-(4-aminopyrrolo[2,1-f][1,2,4]triazin-7-yl)-3,4-dihydroxy-5-(hydroxymethyl)tetrahydrofuran-2-carbonitrile at 11.7 mg/kg, po measured upto 24 hrs by LC-MS/MS analysis. It is filed as ADME, organism-based, Macaca fascicularis. The settings on record: in vivo.
The subject of series [22] is SARS-CoV-2. Nature of the series: Antiviral activity against SARS-CoV-2 infected in African green monkey assessed as reduction in viral load in BALF at 60 to 120 mg/kg, po qd administered for 6 days starting from 8 hrs post infection by PFA assay. It is filed as functional, organism-based. The settings on record: Severe acute respiratory syndrome coronavirus 2, dose lower 60.0 mg/kg, dose upper […], time 6.0 day.

Series [23] can be described thus: Cmax in dog assessed as prodrug conversion by measuring (2R,3R,4S,5R)-2-(4-aminopyrrolo[2,1-f][1,2,4]triazin-7-yl)-3,4-dihydroxy-5-(hydroxymethyl)tetrahydrofuran-2-carbonitrile at […], po measured upto 24 hrs by LC-MS/MS analysis. The settings on record: in vivo. It is filed as ADME, organism-based, Canis lupus familiaris.
The nature of series [24]: as §1. It is filed as toxicity, cell-based. The note with it: HepG2 cells, time 5 day.
Series [25] is described as follows: AUC(0 to 24 hrs) in cynomolgus monkey at 5 mg/kg, po measured upto 24 hrs by LC-MS/MS analysis. It is filed as ADME, organism-based, Macaca fascicularis. Also on record: dose 5 mg/kg, time < 24 hrs, route po. The note with it: in vivo.
Series [26] in a line: AUC(0 to 24 hrs) in African green monkey at 5 mg/kg, po measured upto 24 hrs by LC-MS/MS analysis. It is filed as ADME, organism-based. Also on record: time < 24 hrs, dose 5 mg/kg, route po. The note with it: chlorocebus sabaeus, in vivo.
The nature of series [27]: AUC(0 to 24 hrs) in African green monkey infected with SARS-CoV-2 assessed as prodrug conversion by measuring (2R,3R,4S,5R)-2-(4-aminopyrrolo[2,1-f][1,2,4]triazin-7-yl)-3,4-dihydroxy-5-(hydroxymethyl)tetrahydrofuran-2-carbonitrile at 7.5 mg/kg, iv qd measured after 6 days by LC-MS/MS analysis. The class given is ADME, organism-based, Severe acute respiratory syndrome coronavirus 2. Details: dose 7.5 mg/kg, time 6 day, route iv. The settings on record: in vivo.

SMILES strings stand for the structures. Calls of active or inactive are those of the source. The rule behind the calls is not given here.

As for `CC(C)C(=O)OC[C@H]1O[C@@](C#N)(c2ccc3c(N)ncnn23)[C@H](O)[C@@H]1O` [OBELDESIVIR], in the series on HepG2, the CC50 (as a rule, the concentration giving 50% cytotoxicity) stood at 71 µM. In addition, the AUC – broadly, concentration integrated over time – in [1] stood at 0.01 µM·h; in series [13], 0.02 µM·h. In [2], the Drug metabolism came out at 0.31 nmol/g. For the same compound, the figures for the peak concentration (Cmax) in [3], in [15] and in series [23] were 6.81 µM, 19.6 µM and 57.8 µM, respectively. Also, the result in the series with SARS-CoV-2 [4] was inactive. In addition, the t1/2 stood at 191 min in [5], 121 min in series [9] and 157 min in series [21]. The F was 90% in series [6], 37% in [7] and 63% in series [18]. Besides, the half-life – broadly, how long it takes for the measured level to halve – at […] in series [8] was less than 2 min; in series [14] it was less than 2 min; in series [16], less than 2 min; in [17], 4.3 min. Moreover, the values for the half-life (in the series on CES1b; in series [19]) were 4 min and 9.7 min, respectively. The outcome in the series with SARS-CoV-2 [10], in the series on SARS-CoV-2 [11], in the series on SARS-CoV-2 [12], with SARS-CoV-2 [20] and in the series on SARS-CoV-2 [22] was Active.

`CCC(CC)COC(=O)[C@H](C)N[P@](=O)(OC[C@H]1O[C@@](C#N)(c2ccc3c(N)ncnn23)[C@H](O)[C@@H]1O)Oc1ccccc1`: in series [24], the CC50 at 120 h is 11.1 µM.

As to `N#C[C@@]1(c2ccc3c(N)ncnn23)O[C@H](CO)[C@@H](O)[C@H]1O` [GS-441524], the exposure (AUC) is 1.67 µM·h in series [25], 3.15 µM·h in series [26] and ~ 55 uM.hr in [27].
